This note sets out measurements from ChEMBL document CHEMBL2202954, “The effect of PLC-γ2 inhibitors on the growth of human tumour cells” (2012).

Common to all, as to format: functional
Test [1] relates to UACC-62. Kind of test: Cytotoxicity against human UACC62 cells assessed as cellular growth at 10 uM by SRB assay. On the technique in general: Sulforhodamine B stains cellular protein and so reports cell mass.
The test system of test [2] is OVCAR-8. Kind of test: Cytotoxicity against human OVCAR8 cells assessed as cellular growth at 10 uM by SRB assay.
The subject of test [3] is ACHN. Kind of test: Cytotoxicity against human ACHN cells assessed as cellular growth at 10 uM by SRB assay.
The test system of test [4] is HCC 2998. As to the kind of experiment: Cytotoxicity against human HCC2998 cells assessed as cellular growth at 10 uM by SRB assay.
Test [5] deals with OVCAR-3. Kind of test: Cytotoxicity against human OVCAR3 cells assessed as cellular growth at 10 uM by SRB assay.
In test [6] the test system is PC-3. Kind of test: Cytotoxicity against human PC3 cells assessed as cellular growth at 10 uM by SRB assay.
Test [7] has as its system HT-29. As to the kind of experiment: Cytotoxicity against human HT-29 cells assessed as cellular growth at 10 uM by SRB assay.
Test [8] concerns TK-10. Kind of test: Cytotoxicity against human TK10 cells assessed as cellular growth at 10 uM by SRB assay.
Test [9] relates to HL-60(TB). As to the kind of experiment: Cytotoxicity against human HL-60(TB) cells assessed as cellular growth at 10 uM by SRB assay.
Test [10] concerns K562. Kind of test: Cytotoxicity against human K562 cells assessed as cellular growth at 10 uM by SRB assay.
Test [11] is described as follows: Cytotoxicity against human NCI-ADR-RES cells assessed as cellular growth at 10 uM by SRB assay.
Test [12] has as its system M14. As to the kind of experiment: Cytotoxicity against human M14 cells assessed as cellular growth at 10 uM by SRB assay.
Test [13] has as its system MDA-MB-468. Kind of test: Cytotoxicity against human MDA-MB-468 cells assessed as cellular growth at 10 uM by SRB assay.
In test [14] the test system is MOLT-4. As to the kind of experiment: Cytotoxicity against human MOLT4 cells assessed as cellular growth at 10 uM by SRB assay.
The subject of test [15] is BT-549. Kind of test: Cytotoxicity against human BT549 cells assessed as cellular growth at 10 uM by SRB assay.
For test [16], the system named is CCRF-CEM. Kind of test: Cytotoxicity against human CCRF-CEM cells assessed as cellular growth at 10 uM by SRB assay.
The subject of test [17] is RXF 393. As to the kind of experiment: Cytotoxicity against human RXF393 cells assessed as cellular growth at 10 uM by SRB assay.
Test [18] concerns MDA-MB-435. Kind of test: Cytotoxicity against human MDA-MB-435 cells assessed as cellular growth at 10 uM by SRB assay.
Test [19] concerns SW-620. Kind of test: Cytotoxicity against human SW620 cells assessed as cellular growth at 10 uM by SRB assay.
Test [20] relates to A549. Kind of test: Cytotoxicity against human A549 cells assessed as cellular growth at 10 uM by SRB assay.

For the molecule `COc1ccc2[nH]c(C(=O)NCc3ccccc3)cc2c1`, the Activity is reported as 91.05% in test [1]; 102.92% in test [2]; 94.48% in [3]; 104.4% in [4]; 112.21% in [5]; 102.32% in test [6]. Also, the Activity in test [7] came out at 102.88%; in [8], 120.94%; in test [9], 95.91%; in test [10] it was 92.68%; in [11], 102.25%; in [12] it was 104.15%. Further, the Activity in [13] was determined as 99.1%; in test [14], 83.12%; in test [15] it was 104.33%; in test [16] it was 85.19%; in test [17], 101.97%; in [18] it was 104.78%. Also, the Activity is listed as 107.28% in [19] and 100.34% in test [20].

Turning to `CC1(C)CCc2cc(-c3ccn(S(=O)(=O)c4ccccc4Cl)n3)ccc2O1`, the Activity in test [1] turned out to be 81.14%; in test [2], 89.74%; in test [3] it was 98.39%; in test [4], 81.67%; in [5] it was 93.06%; in test [6], 70.67%. Also, the Activity is reported as 33.37% in test [7]; 74.57% in test [8]; 81.19% in test [9]; 43% in [10]; 78.37% in [11]; 78.84% in test [12]. Further, the Activity in test [13] is 63.67%; in test [14] it was 64.66%; in test [15] it was 99.65%; in test [16], 59.83%; in [17], 93.11%; in [18], 98.73%. In addition, the values for the Activity in [19] and in test [20] were 79.15% and 80.53%, respectively.

Take `CC1(C)CCc2cc(-c3ccn(S(=O)(=O)c4ccc(Cl)cc4)n3)ccc2O1`: the Activity in test [1] came out at 75.03%; in test [2], 86.61%; in test [3], 89.36%; in [4] it was 94.3%; in test [5] it was 84.01%; in test [6], 56.8%. In addition, the Activity in test [7] was found to be 70.86%; in test [8] it was 76.99%; in test [9], 71.91%; in [10], 52.43%; in test [11] it was 69.31%; in [12], 80.11%. Further, the Activity was 48.91% in [13]; 65.38% in [14]; 88.83% in test [15]; 64.16% in test [16]; 89.02% in test [17]; 85.81% in test [18]. In addition, the Activity in test [19] came out at 87.74%; in test [20], 67.37%.

Turning to `CC1(C)CCc2cc(-c3ccn(S(=O)(=O)c4cccc(C(F)(F)F)c4)n3)ccc2O1`, the Activity in test [1] stood at 84.21%; in test [2], 93.92%; in test [3], 109.2%; in test [4] it was 104.44%; in test [5] it was 101.58%; in test [6] it was 88.93%. Besides, the Activity in test [7] came out at 71.22%; in test [8] it was 82.31%; in [9], 72.67%; in test [10], 63.16%; in [11] it was 88.98%; in test [12], 97.31%. For the same molecule, the Activity came to 67.07% in [13]; 66.45% in test [14]; 119.64% in test [15]; 74.11% in test [16]; 97.2% in test [17]; 97.38% in test [18]. For the same molecule, the Activity is reported as 88.93% in test [19] and 80.37% in [20].

For the molecule `Cc1cccc(-c2nc(-c3cccs3)no2)c1`, the Activity in test [1] was determined as 86.85%; in [2], 98.72%; in test [3], 99.9%; in test [4] it was 80.51%; in test [5] it was 104%; in test [6], 80.3%. Moreover, the Activity in [7] was 98.29%; in [8], 68.05%; in test [9], 96%; in [10], 94.59%; in test [11], 95.15%; in test [12], 102.43%. Further, the Activity in test [13] is recorded as 40.25%; in test [14], 96.35%; in test [15], 88.13%; in test [16], 91.12%; in test [17], 126.03%; in test [18], 110.16%. The results for the Activity in test [19] and in [20] were 90.68% and 100.01%, respectively.
